Molecular target: skeletal myofibrils (myosin ATPase)
Assay: Skeletal Myofibril ATPase Assay
Type: biochemical
Conditions: Table 4C
Method in brief: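 Skeletal myofibril ATPase activity was measured via PK-LDH coupling, following NADH loss at 340 nm every 1.5-2 min for 45 min in PIPES/CaCl2/EGTA pCa buffer, pH 7.0. Max−Min slopes were normalised to 1% DMSO vehicle (100%) and fit to a four-parameter logistic (bottom ≥0) for IC50.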

Compound | IC50 [µM]
COc1ccc(-c2ccc(=O)n(CC(=O)NCc3cccc(F)c3)n2)c(F)c1 [IIIb-55, 2-(3-(2-fluoro-4-methoxyphenyl)-6-oxopyridazin-1(6H)-yl)-N-(3-fluorobenzyl)acetamide] | > 100
COc1ccc(-c2ccc(=O)n(CC(=O)Nc3ccc(C(C)C)cc3)n2)cc1 [IIIb-56, N-(4-isopropylphenyl)-2-(3-(4-methoxyphenyl)-6-oxopyridazin-1(6H)-yl)acetamide] | > 100
COc1ccc(-c2ccc(=O)n(CC(=O)NCCC(C)C)n2)c(F)c1 [IIIb-57, 2-(3-(2-fluoro-4-methoxyphenyl)-6-oxopyridazin-1(6H)-yl)-N-isopentylacetamide] | > 100
COc1ccc(-c2ccc(=O)n(CC(=O)NC3CC3)n2)c(F)c1 [IIIb-58, N-cyclopropyl-2-(3-(2-fluoro-4-methoxyphenyl)-6-oxopyridazin-1(6H)-yl)acetamide] | > 100
COc1ccc(-c2ccc(=O)n(CC(=O)Nc3cccc(C)n3)n2)cc1 [IIIb-59, 2-(3-(4-methoxyphenyl)-6-oxopyridazin-1(6H)-yl)-N-(6-methylpyridin-2-yl)acetamide] | > 100
COc1ccc(-c2ccc(=O)n(CC(=O)NC3CCCCC3)n2)c(F)c1 [IIIb-60, N-cyclohexyl-2-(3-(2-fluoro-4-methoxyphenyl)-6-oxopyridazin-1(6H)-yl)acetamide] | > 100
CCc1cccc(NC(=O)Cn2nc(-c3ccc(C)cc3)ccc2=O)c1 [IIIc-1, N-(3-ethylphenyl)-2-(6-oxo-3-(p-tolyl)pyridazin-1(6H)-yl)acetamide] | < 10
CC[C@H](C)NC(=O)Cn1nc(-c2ccc(C)cc2)ccc1=O [IIIc-2, (S)-N-(sec-butyl)-2-(6-oxo-3-(p-tolyl)pyridazin-1(6H)-yl)acetamide] | < 10
Cc1ccc(-c2ccc(=O)n(CC(=O)NCCc3ccccc3)n2)cc1 [IIIc-3, 2-(6-oxo-3-(p-tolyl)pyridazin-1(6H)-yl)-N-phenethylacetamide] | < 10
Cc1ccc(-c2ccc(=O)n(CC(=O)NC3CCCCCC3)n2)cc1 [IIIc-4, N-cycloheptyl-2-(6-oxo-3-(p-tolyl)pyridazin-1(6H)-yl)acetamide] | 10 to 100
Cc1ccc(-c2ccc(=O)n(CC(=O)NC3CCCC3)n2)cc1 [IIIc-5, N-cyclopentyl-2-(6-oxo-3-(p-tolyl)pyridazin-1(6H)-yl)acetamide] | 10 to 100
Cc1ccc(-c2ccc(=O)n(CC(=O)NC3CCCCC3)n2)cc1 [IIIc-6, N-cyclohexyl-2-(6-oxo-3-(p-tolyl)pyridazin-1(6H)-yl)acetamide] | 10 to 100
COc1ccc(-c2ccc(=O)n(CC(=O)N(C)c3ccccc3)n2)cc1 [IIIc-7, 2-(3-(4-methoxyphenyl)-6-oxopyridazin-1(6H)-yl)-N-methyl-N-phenylacetamide] | 10 to 100
Cn1ccc2c(NC(=O)Cn3nc(-c4ccc(F)cc4)ccc3=O)cccc21 [IIIc-16, 2-(3-(4-fluorophenyl)-6-oxopyridazin-1(6H)-yl)-N-(1-methyl-1H-indol-4-yl)acetamide] | < 10
O=C(Cn1nc(-c2ccc(Cl)cc2)ccc1=O)Nc1cccc2[nH]ccc12 [IIIc-19, 2-(3-(4-chlorophenyl)-6-oxopyridazin-1(6H)-yl)-N-(1H-indol-4-yl)acetamide] | < 10
Cn1ccc2c(NC(=O)Cn3nc(-c4ccc(Cl)cc4)ccc3=O)cccc21 [IIIc-20, 2-(3-(4-chlorophenyl)-6-oxopyridazin-1(6H)-yl)-N-(1-methyl-1H-indol-4-yl)acetamide] | < 10
O=C(Cn1nc(-c2ccc(Cl)cc2)ccc1=O)Nc1ccc2[nH]ccc2c1 [IIIc-22, 2-(3-(4-chlorophenyl)-6-oxopyridazin-1(6H)-yl)-N-(1H-indol-5-yl)acetamide] | < 10
COc1ccccc1NC(=O)Cn1nc(-c2ccc(Cl)cc2)ccc1=O [IIIc-23, 2-(3-(4-chlorophenyl)-6-oxopyridazin-1(6H)-yl)-N-(2-methoxyphenyl)acetamide] | < 10
O=C(Cn1nc(-c2ccc(Cl)cc2)ccc1=O)Nc1ccccc1F [IIIc-27, 2-(3-(4-chlorophenyl)-6-oxopyridazin-1(6H)-yl)-N-(2-fluorophenyl)acetamide] | 10 to 100
O=C(Cn1nc(-c2ccc(Cl)cc2)ccc1=O)Nc1ccccc1Cl [IIIc-28, N-(2-chlorophenyl)-2-(3-(4-chlorophenyl)-6-oxopyridazin-1(6H)-yl)acetamide] | < 10
CC[C@H](C)NC(=O)Cn1nc(-c2ccc(Cl)cc2)ccc1=O [IIIc-30, (S)-N-(sec-butyl)-2-(3-(4-chlorophenyl)-6-oxopyridazin-1(6H)-yl)acetamide] | 10 to 100
COc1ccc(NC(=O)Cn2nc(-c3ccc(F)cc3)ccc2=O)c(OC)c1 [IIIc-31, N-(2,4-dimethoxyphenyl)-2-(3-(4-fluorophenyl)-6-oxopyridazin-1(6H)-yl)acetamide] | 10 to 100

Compound | IC50 [µM]
CN(Cc1ccccc1)C(=O)Cn1nc(-c2ccc(Cl)cc2)ccc1=O [IIIc-32, N-benzyl-2-(3-(4-chlorophenyl)-6-oxopyridazin-1(6H)-yl)-N-methylacetamide] | 10 to 100
CC(C)OCCCNC(=O)Cn1nc(-c2ccc(Cl)cc2)ccc1=O [IIIc-33, 2-(3-(4-chlorophenyl)-6-oxopyridazin-1(6H)-yl)-N-(3-isopropoxypropyl)acetamide] | 10 to 100
CC(C)CNC(=O)Cn1nc(-c2ccc(Cl)cc2)ccc1=O [IIIc-35, 2-(3-(4-chlorophenyl)-6-oxopyridazin-1(6H)-yl)-N-isobutylacetamide] | 10 to 100
CC(C)NC(=O)Cn1nc(-c2ccc(Br)cc2)ccc1=O [IIIc-40, 2-(3-(4-bromophenyl)-6-oxopyridazin-1(6H)-yl)-N-isopropylacetamide] | 10 to 100
O=C(Cn1nc(-c2ccc(F)cc2)ccc1=O)NCCc1c[nH]c2ccccc12 [IIIc-44, N-(2-(1H-indol-3-yl)ethyl)-2-(3-(4-fluorophenyl)-6-oxopyridazin-1(6H)-yl)acetamide] | 10 to 100
O=C(Cn1nc(-c2ccccc2)ccc1=O)NCc1ccccc1Cl [IIIc-47, N-(2-chlorobenzyl)-2-(6-oxo-3-phenylpyridazin-1(6H)-yl)acetamide] | 10 to 100
O=C(Cn1nc(-c2ccccc2)ccc1=O)NCCC1=CCCCC1 [IIIc-48, N-(2-(cyclohex-1-en-1-yl)ethyl)-2-(6-oxo-3-phenylpyridazin-1(6H)-yl)acetamide] | < 10
O=C(Cn1nc(-c2ccccc2)ccc1=O)Nc1ccc2[nH]ccc2c1 [IIIc-49, N-(1H-indol-5-yl)-2-(6-oxo-3-phenylpyridazin-1(6H)-yl)acetamide] | < 10
O=C(Cn1nc(-c2ccccc2)ccc1=O)Nc1cccc2[nH]ccc12 [IIIc-50, N-(1H-indol-4-yl)-2-(6-oxo-3-phenylpyridazin-1(6H)-yl)acetamide] | 10 to 100
O=C(Cn1nc(-c2ccccc2)ccc1=O)NC1(c2ccccc2)CCC1 [IIIc-51, 2-(6-oxo-3-phenylpyridazin-1(6H)-yl)-N-(1-phenylcyclobutyl)acetamide] | < 10
O=C(Cn1nc(-c2ccccc2)ccc1=O)Nc1ccccc1C(F)(F)F [IIIc-52, 2-(6-oxo-3-phenylpyridazin-1(6H)-yl)-N-(2-(trifluoromethyl)phenyl)acetamide] | 10 to 100
CC(CCNC(=O)Cn1nc(-c2ccccc2)ccc1=O)c1ccccc1 (stereo not drawn) [IIIc-53, 2-(6-oxo-3-phenylpyridazin-1(6H)-yl)-N-(3-phenylbutyl)acetamide] | 10 to 100
O=C(Cn1nc(-c2ccccc2)ccc1=O)Nc1ccc(Cl)cc1Cl [IIIc-54, N-(2,4-dichlorophenyl)-2-(6-oxo-3-phenylpyridazin-1(6H)-yl)acetamide] | 10 to 100
CCC1CCC(CNC(=O)Cn2nc(-c3ccccc3)ccc2=O)CC1 (stereo not drawn) [IIIc-55, N-((4-ethylcyclohexyl)methyl)-2-(6-oxo-3-phenylpyridazin-1(6H)-yl)acetamide] | 10 to 100
O=C(Cn1nc(-c2ccccc2)ccc1=O)Nc1ccccc1Cl [IIIc-56, N-(2-chlorophenyl)-2-(6-oxo-3-phenylpyridazin-1(6H)-yl)acetamide] | 10 to 100
CC[C@H](C)NC(=O)Cn1nc(-c2ccccc2)ccc1=O [IIIc-57, (S)-N-(sec-butyl)-2-(6-oxo-3-phenylpyridazin-1(6H)-yl)acetamide] | 10 to 100
COc1ccccc1NC(=O)Cn1nc(-c2ccccc2)ccc1=O [IIIc-58, N-(2-methoxyphenyl)-2-(6-oxo-3-phenylpyridazin-1(6H)-yl)acetamide] | 10 to 100
COc1ccc(Cl)cc1NC(=O)Cn1nc(-c2ccccc2)ccc1=O [IIIc-62, N-(5-chloro-2-methoxyphenyl)-2-(6-oxo-3-phenylpyridazin-1(6H)-yl)acetamide] | > 100
CC(C)NC(=O)Cn1nc(-c2ccccc2)ccc1=O [IIIc-63, N-isopropyl-2-(6-oxo-3-phenylpyridazin-1(6H)-yl)acetamide] | > 100
O=C(Cn1nc(-c2ccccc2)ccc1=O)Nc1ccc2c(c1)OCCO2 [IIIc-64] | > 100
O=C(Cn1nc(-c2ccccc2)ccc1=O)NC1CC1 [IIIc-65, N-cyclopropyl-2-(6-oxo-3-phenylpyridazin-1(6H)-yl)acetamide] | > 100
O=C(Cn1nc(-c2ccccc2)ccc1=O)Nc1ccccc1F [IIIc-66, N-(2-fluorophenyl)-2-(6-oxo-3-phenylpyridazin-1(6H)-yl)acetamide] | > 100

Tested on: embryos from zebrafish model of DMD
Assay: not given
Conditions: Li and Arner, PLoSONE, 2015; cited from earlier work

Compound | protection of muscles from pathological muscle derangement
Cc1ccc(S(=O)(=O)NCc2ccccc2)cc1 [BTS, N-benzyl-p-tolyl-sulfonamide] | protect muscles from pathological muscle derangement
